The source of these data is ChEMBL document CHEMBL4834434, “Discovery of Novel and Potent N-Methyl-d-aspartate Receptor Positive Allosteric Modulators with Antidepressant-like Activity in Rodent Models” (J Med Chem, 2021).

For data set [1], the target named is Glutamate NMDA receptor (Mus musculus) (UniProt P35436+Q91ZU9+Q03391+P35438+Q01097+Q01098+A2AIR5). The data set is described as follows: Positive allosteric modulation of C57BL/6 mouse NMDA receptor assessed as fold change in compound potentiated NMDA-induced current relative to NMDA current alone at 30 uM measured after 15 to 30 mins by patch-clamp method. Type of data set: tissue-based. The conditions noted are these: Brain, filed as positive allosteric modulator, time 15-30 min. On the technique in general: In patch-clamp work, channel activity is measured electrically.

The nature of data set [2]: Brain to blood partition coefficient of the compound. Type of data set: physicochemical, tissue-based. Conditions: read-out: logBB (converted).
A further data set relates to Mus musculus. The data set is described as follows: Antidepressant activity in ICR mouse aassessed as inhibition of apomorphine-induced climbing behaviour at 10 mg/kg, ip administered prior to APO challenge and measured after 30 mins. The class given is functional, organism-based.

Structures are written as SMILES. Calls of active or inactive are those of the source. No cut-off for these calls is given here.

For `Cc1cc(F)ccc1NC(=O)c1ccc(Cn2nc(C(F)(F)F)cc2C(F)(F)F)o1`, the fold change (FC) in data set [1] worked out at 2.4. In data set [2], the Kp was 2.51.

For `CNc1ccccc1NC(=O)c1ccc(Cn2nc(C)cc2C)o1`, the fold change (FC) in data set [1] was determined as 0.8. Also, the Kp in data set [2] was 0.316.

Consider `Cc1ccc(C(=O)Nc2ccc(Br)cc2C)o1`, for which the fold change (FC) in data set [1] was -0.3. Besides, in data set [2], the Kp is 1.32.

`Cc1cc(C)n(Cc2ccc(C(=O)Nc3ccccc3)o2)n1`: the fold change (FC) in data set [1] came out at 0.1. Also, the Kp in data set [2] was 0.398.

`Cc1cc(Br)ccc1NC(=O)c1ccco1`: in data set [1], the fold change (FC) is -0.2. Further, in data set [2], the Kp is 1.41.

In the case of `Cc1cc(C)n(Cc2ccc(C(=O)Nc3ccccc3CCO)o2)n1`, the fold change (FC) in data set [1] came out at 0.4. In addition, the Kp in data set [2] was 0.126.

For the compound `CCCCNC(=O)c1cc(Cl)ccc1NC(=O)c1ccc(Cn2nc(C)cc2C)o1`, in data set [1], the fold change (FC) is -0.6. Also, the Kp in data set [2] was 0.257.

With `Cc1cc(C)n(Cc2ccc(C(=O)Nc3ccccc3-c3ccccc3)o2)n1`, the fold change (FC) in data set [1] is 0.3. Besides, in data set [2], the Kp was 0.398.

Turning to `Cc1cc(C)n(Cc2ccc(C(=O)Nc3ccc(Cl)c(F)c3)s2)n1`, the fold change (FC) in data set [1] was found to be 6. The Kp in data set [2] was 1.26.

Regarding `Cc1cc(Br)ccc1NC(=O)c1ccc(Cl)o1`, the fold change (FC) in data set [1] is 1.2. Further, the Kp in data set [2] is 2.09.

In the case of `COc1cc(NC(=O)c2ccc(Cn3nc(C(F)(F)F)cc3C(F)(F)F)o2)cc(OC)c1`, the fold change (FC) in data set [1] turned out to be 2.5. The Kp in data set [2] was 1.26.

Regarding `Cc1cc(C)n(Cc2ccc(C(=O)Nc3ccc(F)c(C)c3)s2)n1`, in data set [1], the fold change (FC) was determined as 2.4. The Kp in data set [2] is 0.794.

Regarding `Cc1cc(C)n(Cc2ccc(C(=O)Nc3ccc(-c4cccnc4)cc3C)s2)n1`, in data set [1], the fold change (FC) stood at 1.8. The Kp in data set [2] was 0.251.

As for `Cc1cc(C(F)(F)F)n(Cc2ccc(C(=O)Nc3ccc(Cl)cc3C)o2)n1`, the fold change (FC) in data set [1] was 7.7. The Kp in data set [2] was 1.58.

Take `Cc1cc(C)n(Cc2ccc(C(=O)Nc3ccc(F)cc3Cl)o2)n1`: the fold change (FC) in data set [1] was determined as 0.9. Moreover, in data set [2], the Kp was 0.794.

As to `CCOc1ccc(NC(=O)c2ccc(Cn3nc(C)cc3C)s2)cc1OCC`, the fold change (FC) in data set [1] came out at 2.7. Moreover, in data set [2], the Kp is 0.251.

Regarding `Cc1cc(C)n(Cc2ccc(C(=O)Nc3cc(Cl)cc(Cl)c3)s2)n1`, the fold change (FC) in data set [1] is 1.2. The Kp in data set [2] is 1.26.

On to `Cc1cc(C)n(Cc2ccc(C(=O)Nc3ccc4[nH]c(=O)[nH]c4c3)s2)n1`, for which, in data set [1], the fold change (FC) came out at 0.3. The Kp in data set [2] is 0.0251.

Regarding `Cc1nc2n(c(=O)c1CCN1CCC(c3noc4cc(F)ccc34)CC1)CCCC2`, in the data set on Mus musculus, the outcome was Active.

For `Cc1cc(C)n(Cc2ccc(C(=O)Nc3ccc(-c4ccccc4)cc3C)s2)n1`, the fold change (FC) in data set [1] came out at 2.8. In addition, the Kp in data set [2] is 0.501.

Regarding `Cc1cc(C)n(Cc2ccc(C(=O)Nc3ccc(Cl)cc3Cl)o2)n1`, in data set [1], the fold change (FC) was 4.7. In addition, the Kp in data set [2] was 1.

For `Cc1cc(C)n(Cc2ccc(C(=O)Nc3ccccc3C)o2)n1`, in data set [1], the fold change (FC) was determined as 1.2. Besides, the Kp in data set [2] was 0.49.

For the compound `O=C(Nc1ccc(Cl)c(Cl)c1)c1ccc(Cn2nc(C(F)(F)F)cc2C(F)(F)F)o1`, the fold change (FC) in data set [1] came to 2.9. The Kp in data set [2] is 3.98.

Take `Cc1cc(C)n(Cc2ccc(C(=O)Nc3ccc(Cl)cc3C)o2)n1`: in data set [1], the fold change (FC) was determined as 3.2. For the same compound, the Kp in data set [2] was 0.724.

On to `Cc1cc(C)n(Cc2ccc(C(=O)Nc3ccc(F)c(Cl)c3)s2)n1`, for which the fold change (FC) in data set [1] stood at 3.5. Besides, the Kp in data set [2] was 1.26.

As to `Cc1cc(C(F)(F)F)n(Cc2ccc(C(=O)Nc3ccc(Br)cc3C)o2)n1`, the fold change (FC) in data set [1] is 1.2. Besides, the Kp in data set [2] is 1.58.

Turning to `Cc1cc(C)n(Cc2ccc(C(=O)Nc3ccc4nc[nH]c4c3)s2)n1`, in data set [1], the fold change (FC) worked out at 0.1. The Kp in data set [2] was 0.158.

`Cc1cc(C)n(Cc2ccc(C(=O)Nc3ccc(Br)cc3)o2)n1`: the fold change (FC) in data set [1] was found to be 1.2. For the same compound, the Kp in data set [2] is 0.646.

On to `COC(=O)c1cc(Br)ccc1NC(=O)c1ccc(Cn2nc(C)cc2C)o1`, for which the fold change (FC) in data set [1] turned out to be 2.7. Further, the Kp in data set [2] was 0.251.

Turning to `Cc1cc(C)n(Cc2ccc(C(=O)Nc3ccc(F)cc3C)o2)n1`, in data set [1], the fold change (FC) stood at 1.9. Also, in data set [2], the Kp was 0.631.

On to `Cc1cc(C)n(Cc2ccc(C(=O)Nc3ccc(Cl)cc3C(=O)NCCCCO)o2)n1`, for which the fold change (FC) in data set [1] is 1.7. The Kp in data set [2] is 0.17.

Take `Cc1cc(C)n(Cc2ccc(C(=O)Nc3ccc4cnccc4c3)s2)n1`: the fold change (FC) in data set [1] was -0.2. For the same compound, the Kp in data set [2] is 0.316.

Consider `Cc1cc(Cl)ccc1NC(=O)c1ccc(Cn2nc(C(F)(F)F)cc2C(F)(F)F)o1`, for which, in data set [1], the fold change (FC) amounted to 0.7. The Kp in data set [2] was 2.51.

On to `Cc1cc(C)n(Cc2ccc(C(=O)Nc3cccnc3)o2)n1`, for which the fold change (FC) in data set [1] was 2.9. The Kp in data set [2] is 0.251.

For the compound `Cc1cc(C)n(Cc2ccc(C(=O)Nc3ccc(-c4ccccc4)cc3)o2)n1`, the fold change (FC) in data set [1] stood at 6.7. In addition, the Kp in data set [2] is 0.398.

Regarding `Cc1cc(C)n(Cc2ccc(C(=O)Nc3ccc(Cl)cc3C)s2)n1`, in data set [1], the fold change (FC) is -0.2. Also, the Kp in data set [2] was 1.26.

For `Cc1cc(C)n(Cc2ccc(C(=O)Nc3ccc4ccccc4c3)o2)n1`, in data set [1], the fold change (FC) was 3.2. In addition, the Kp in data set [2] is 0.398.

Take `COc1cc(NC(=O)c2ccc(Cn3nc(C)cc3C)s2)cc(OC)c1`: in data set [1], the fold change (FC) stood at 0.4. Also, the Kp in data set [2] was 0.398.

Turning to `Cc1cc(C)n(Cc2ccc(C(=O)Nc3ccc(Cl)cc3CO)o2)n1`, the fold change (FC) in data set [1] turned out to be 1.1. The Kp in data set [2] was 0.398.

For the compound `Cc1cc(C)n(Cc2ccc(C(=O)Nc3ccc(Cl)cc3C(=O)NCc3ccccc3)o2)n1`, in data set [1], the fold change (FC) turned out to be 2.9. In data set [2], the Kp was 0.166.

With `Cc1cc(C)n(Cc2ccc(C(=O)Nc3ccc(Br)cc3C)s2)n1`, the fold change (FC) in data set [1] was 1.5. The Kp in data set [2] was 1.26.

With `Cc1cc(C)n(Cc2ccc(C(=O)Nc3ccc(-c4ccccc4)cc3)s2)n1`, in data set [1], the fold change (FC) came to 2.8. Further, the Kp in data set [2] was 0.398.

For the compound `Cc1cc(C)n(Cc2ccc(C(=O)Nc3ccc(Br)cc3Cl)o2)n1`, the fold change (FC) in data set [1] worked out at 1.7. The Kp in data set [2] is 1.

Turning to `Cc1cc(C)n(Cc2ccc(C(=O)Nc3ccc4cccnc4c3)s2)n1`, the fold change (FC) in data set [1] came out at 1.1. Moreover, the Kp in data set [2] is 0.316.

As to `COC(=O)c1cc(F)ccc1NC(=O)c1ccc(Cn2nc(C)cc2C)o1`, the fold change (FC) in data set [1] amounted to 1.5. In addition, in data set [2], the Kp is 0.158.

As for `Cc1cc(C)n(Cc2ccc(C(=O)Nc3ccc(Cl)cc3C(=O)Nc3ccccc3)o2)n1`, in data set [1], the fold change (FC) worked out at 1.2. Moreover, the Kp in data set [2] was 0.195.

As for `O=C(Nc1ccc(Cl)cc1Cl)c1ccc(Cn2nc(C(F)(F)F)cc2C(F)(F)F)o1`, the fold change (FC) in data set [1] came out at 0.4. For the same compound, the Kp in data set [2] is 3.98.

Take `COC(=O)c1cc(Cl)ccc1NC(=O)c1ccc(Cn2nc(C)cc2C)o1`: the fold change (FC) in data set [1] was determined as 0.1. The Kp in data set [2] was 0.158.

For the compound `Cc1cc(Br)ccc1NC(=O)c1ccc(Cn2nc(C(F)(F)F)cc2C(F)(F)F)o1`, the fold change (FC) in data set [1] stood at 10.7. Further, in data set [2], the Kp was 2.51.

`Cc1cc(C)n(Cc2ccc(C(=O)Nc3ccc(Cl)cc3C(=O)NCCCO)o2)n1`: in data set [1], the fold change (FC) came to 2.9. Moreover, in data set [2], the Kp was 0.0331.

With `Cc1cc(NC(=O)c2ccc(Cn3nc(C(F)(F)F)cc3C(F)(F)F)o2)ccc1F`, the fold change (FC) in data set [1] is 5.5. Also, the Kp in data set [2] was 2.51.

For `Cc1cc(C)n(Cc2ccc(C(=O)Nc3ccc4ccccc4c3)s2)n1`, the fold change (FC) in data set [1] is 1.8. The Kp in data set [2] is 0.631.

Turning to `COC(=O)c1cc(F)ccc1NC(=O)c1ccc(Cn2nc(C(F)(F)F)cc2C(F)(F)F)o1`, the fold change (FC) in data set [1] is 1.9. For the same compound, the Kp in data set [2] is 0.794.

Turning to `Cc1cc(C)n(Cc2ccc(C(=O)Nc3cc(F)cc(F)c3)s2)n1`, in data set [1], the fold change (FC) is 5. Also, the Kp in data set [2] was 1.

Consider `CCc1cc(Br)ccc1NC(=O)c1ccc(Cn2nc(C)cc2C)o1`, for which the fold change (FC) in data set [1] stood at 2.6. In data set [2], the Kp was 0.631.
